Consider 24 molecules from patent US11447517B2, “Galactoside inhibitor of galectins” (GALECTO BIOTECH AB, priority 2018, dated 2022).

As usually defined, the pKd is the Kd on a negative log10 scale, so that one unit is a factor of ten. Higher therefore signals a small Kd.

pKd: −log10 of the molar value.

Sequence of galectin-3 (P17931 whole entry): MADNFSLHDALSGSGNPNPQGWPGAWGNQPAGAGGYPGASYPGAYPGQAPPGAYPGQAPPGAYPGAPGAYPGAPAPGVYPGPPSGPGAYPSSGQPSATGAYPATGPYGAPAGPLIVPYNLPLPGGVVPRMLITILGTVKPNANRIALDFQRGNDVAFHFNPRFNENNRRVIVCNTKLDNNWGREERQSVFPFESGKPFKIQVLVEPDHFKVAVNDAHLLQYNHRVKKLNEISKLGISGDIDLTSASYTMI

In the test the target is galectin-3 (Homo sapiens (Human), UniProt P17931). The test is described as follows: Fluorescence anisotropy assay, inhibition of galectin / fluorescein tagged saccharide probe interaction. In kind it is binding. Here is the method:
Evaluation of Kd Values The affinity of Example 1-71 for galectins were determined by a fluorescence anisotropy assay where the compound was used as an inhibitor of the interaction between galectin and a fluorescein tagged saccharide probe as described Sörme, P., Kahl-Knutsson, B., Huflejt, M., Nilsson, U. J., and Leffler H. (2004) Fluorescence polarization as an analytical tool to evaluate galectin-ligand interactions. Anal. Biochem. 334: 36-47, (Sörme et al., 2004) and Monovalent interactions of Galectin-1 By Salomonsson, Emma; Larumbe, Amaia; Tejler, Johan; Tullberg, Erik; Rydberg, Hanna; Sundin, Anders; Khabut, Areej; Frejd, Torbjorn; Lobsanov, Yuri D.; Rini, James M.; et al, From Biochemistry (2010), 49(44), 9518-9532, (Salomonsson et al., 2010). […] 100 nM albumin was included as a carrier to prevent protein loss at such low concentration of galectin.
(In general: Fluorescence polarisation rises when a labelled molecule tumbles more slowly, as on binding a larger partner.)
`CO[C@@H]1[C@@H](n2cc(-c3cc(F)c(F)c(F)c3)nn2)[C@@H](O)[C@@H](CO)O[C@@H]1Sc1cc(Cl)cnc1-c1nccs1` [Example 31, 5-Chloro-2-(thiazol-2-yl)pyridin-3-yl 3-deoxy-3-[4-(3,4,5-trifluorophenyl)-1H-1,2,3-triazol-1-yl]-2-O-methyl-1-thio-α-D-galactopyranoside] gave a pKd of 6.52.

The molecule `CO[C@@H]1[C@@H](n2cc(-c3cc(F)c(F)c(F)c3)nn2)[C@@H](O)[C@@H](CO)O[C@@H]1Sc1cc(-c2nccs2)cnc1-c1nccs1` [Example 32, 2,5-Bis(thiazol-2-yl)pyridin-3-yl 3-deoxy-3-[4-(3,4,5-trifluorophenyl)-1H-1,2,3-triazol-1-yl]-2-O-methyl-1-thio-α-D-galactopyranoside] had a pKd of 6.68.

Take `CO[C@@H]1[C@@H](n2cc(-c3cc(F)c(Cl)c(F)c3)nn2)[C@@H](O)[C@@H](CO)O[C@@H]1Sc1cncc(Cl)c1` [Example 33, 5-Chloropyridin-3-yl 3-[4-(4-chloro-3,5-difluorophenyl)-1H-1,2,3-triazol-1-yl]-3-deoxy-2-O-methyl-1-thio-α-D-galactopyranoside]: the pKd is 7.51. This pKd lies 0.83 log units higher than the previous one.

`CO[C@@H]1[C@@H](n2cc(-c3cc(F)c(Cl)c(F)c3)nn2)[C@@H](O)[C@@H](CO)O[C@@H]1Sc1cncc(Br)c1` [Example 34, 5-Bromopyridin-3-yl 3-[4-(4-chloro-3,5-difluorophenyl)-1H-1,2,3-triazol-1-yl]-3-deoxy-2-O-methyl-1-thio-α-D-galactopyranoside] showed a pKd of 7.68. This pKd and that of the molecule before are within 0.2 log units of each other.

Molecule `CO[C@@H]1[C@@H](n2cc(-c3ccc(Cl)c(F)c3)nn2)[C@@H](O)[C@@H](CO)O[C@@H]1Sc1cncc(Cl)c1` [Example 37, 5-Chloropyridin-3-yl 3-[4-(4-chloro-3-fluorophenyl)-1H-1,2,3-triazol-1-yl]-3-deoxy-2-O-methyl-1-thio-α-D-galactopyranoside] gave a pKd of 7.38.

`CO[C@@H]1[C@@H](n2cc(-c3ccc(Cl)c(F)c3)nn2)[C@@H](O)[C@@H](CO)O[C@@H]1Sc1cncc(Br)c1` [Example 38, 5-Bromopyridin-3-yl 3-[4-(4-chloro-3-fluorophenyl)-1H-1,2,3-triazol-1-yl]-3-deoxy-2-O-methyl-1-thio-α-D-galactopyranoside]: the pKd is 7.21.

`CO[C@@H]1[C@@H](n2cc(-c3cc(F)c(Cl)c(F)c3)nn2)[C@@H](O)[C@@H](CO)O[C@@H]1Sc1cnc(C(F)(F)F)c(C)c1` [Example 39, 6-Trifluoromethyl-5-methylpyridin-3-yl 3-[4-(4-chloro-3,5-difluorophenyl)-1H-1,2,3-triazol-1-yl]-3-deoxy-2-O-methyl-1-thio-α-D-galactopyranoside] gave a pKd of 6.55.

For `CO[C@@H]1[C@@H](n2cc(-c3cc(F)c(Cl)c(F)c3)nn2)[C@@H](O)[C@@H](CO)O[C@@H]1Sc1cc(Cl)ccc1C(=O)N1CCC1` [Example 40, 2-(N-azetidinyl-carbonyl)-5-chlorophenyl 3-[4-(4-chloro-3,5-difluorophenyl)-1H-1,2,3-triazol-1-yl]-3-deoxy-2-O-methyl-1-thio-α-D-galactopyranoside], the pKd was 7.82. Against the preceding molecule, the pKd is 1.27 log units higher.

The molecule `CO[C@@H]1[C@@H](n2cc(-c3ccc(C)c(F)c3)nn2)[C@@H](O)[C@@H](CO)O[C@@H]1Sc1cc(Cl)ccc1C(=O)N1CCC1` [Example 41, 2-(N-azetidinyl-carbonyl)-5-chlorophenyl 3-deoxy-3-[4-(3-fluoro-4-methylphenyl)-1H-1,2,3-triazol-1-yl]-2-O-methyl-1-thio-α-D-galactopyranoside] gave a pKd of 8.15.

The molecule `CO[C@@H]1[C@@H](n2cc(-c3cc(F)c(F)c(F)c3)nn2)[C@@H](O)[C@@H](CO)O[C@@H]1Sc1cncc(Cl)c1` [Example 42, 5-Chloropyridin-3-yl 3-deoxy-3-[4-(3,4,5-trifluorophenyl)-1H-1,2,3-triazol-1-yl]-2-O-methyl-1-thio-α-D-galactopyranoside] had a pKd of 7.54. This pKd is 0.61 log units lower than that of the molecule before.

`CO[C@@H]1[C@@H](n2cc(-c3ccc(Cl)c(C)n3)nn2)[C@@H](O)[C@@H](CO)O[C@@H]1Sc1cncc(Cl)c1` [Example 44, 5-Chloropyridin-3-yl 3-[4-(5-chloro-6-methylpyridin-2-yl)-1H-1,2,3-triazol-1-yl]-3-deoxy-2-O-methyl-1-thio-α-D-galactopyranoside] had a pKd of 6.06.

For `CO[C@@H]1[C@@H](n2cc(-c3cc(F)c(F)c(F)c3)nn2)[C@@H](O)[C@@H](CO)O[C@@H]1Sc1cnc(C#N)c(Cl)c1` [Example 45, 3-Chloro-2-cyanopyridin-5-yl 3-deoxy-3-[4-(3,4,5-trifluorophenyl)-1H-1,2,3-triazol-1-yl]-2-O-methyl-1-thio-α-D-galactopyranoside], the pKd is 7.19.

Take `CO[C@@H]1[C@@H](n2cc(-c3cc(F)c(F)c(F)c3)nn2)[C@@H](O)[C@@H](CO)O[C@@H]1Sc1cc(Cl)cnc1C#N` [Example 46, 5-Chloro-2-cyanopyridin-3-yl 3-deoxy-3-[4-(3,4,5-trifluorophenyl)-1H-1,2,3-triazol-1-yl]-2-O-methyl-1-thio-α-D-galactopyranoside]: the negative-log Kd (pKd) is 7.46.

`CO[C@@H]1[C@@H](n2cc(-c3cc(F)c(Cl)c(F)c3)nn2)[C@@H](O)[C@@H](CO)O[C@@H]1Sc1cc(Cl)cnc1C#N` [Example 47, 5-Chloro-2-cyanopyridin-3-yl 3-[4-(4-chloro-3,5-difluorophenyl)-1H-1,2,3-triazol-1-yl]-3-deoxy-2-O-methyl-1-thio-α-D-galactopyranoside]: the pKd is 7.47.

In the case of `CO[C@@H]1[C@@H](n2cc(-c3ccc(Cl)c(F)c3)nn2)[C@@H](O)[C@@H](CO)O[C@@H]1Sc1cc(Cl)cnc1C#N` [Example 48, 5-Chloro-2-cyanopyridin-3-yl 3-[4-(4-chloro-3-fluorophenyl)-1H-1,2,3-triazol-1-yl]-3-deoxy-2-O-methyl-1-thio-α-D-galactopyranoside], the pKd is 7.51.

Regarding `CO[C@@H]1[C@@H](n2cc(-c3cc(F)c(Cl)c(F)c3)nn2)[C@@H](O)[C@@H](CO)O[C@@H]1Sc1cc(C)cnc1C#N` [Example 49, 2-Cyano-5-methylpyridin-3-yl 3-[4-(4-chloro-3,5-difluorophenyl)-1H-1,2,3-triazol-1-yl]-3-deoxy-2-O-methyl-1-thio-α-D-galactopyranoside], the pKd is 7.30. Against the preceding molecule, the pKd is 0.21 log units lower.

As to `CO[C@@H]1[C@@H](n2cc(-c3cc(F)c(Cl)c(F)c3)nn2)[C@@H](O)[C@@H](CO)O[C@@H]1Sc1cc(Br)cnc1C#N` [Example 50, 5-Bromo-2-cyanopyridin-3-yl 3-[4-(4-chloro-3,5-difluorophenyl)-1H-1,2,3-triazol-1-yl]-3-deoxy-2-O-methyl-1-thio-α-D-galactopyranoside], the pKd was 7.64.

Molecule `CO[C@@H]1[C@@H](n2cc(-c3ccc(Cl)c(F)c3)nn2)[C@@H](O)[C@@H](CO)O[C@@H]1Sc1cc(Br)cnc1C#N` [Example 51, 5-Bromo-2-cyanopyridin-3-yl 3-[4-(4-chloro-3-fluorophenyl)-1H-1,2,3-triazol-1-yl]-3-deoxy-2-O-methyl-1-thio-α-D-galactopyranoside] had a pKd of 7.43.

`C#Cc1cncc(S[C@H]2O[C@H](CO)[C@H](O)[C@H](n3cc(-c4cc(F)c(Cl)c(F)c4)nn3)[C@H]2OC)c1` [Example 54, 5-Ethynylpyridin-3-yl 3-[4-(4-chloro-3,5-difluorophenyl)-1H-1,2,3-triazol-1-yl]-3-deoxy-2-O-methyl-1-thio-α-D-galactopyranoside]: the pKd is 7.46.

Turning to `CO[C@@H]1[C@@H](n2cc(-c3ccc(Cl)c(F)n3)nn2)[C@@H](O)[C@@H](CO)O[C@@H]1Sc1cc(Cl)cnc1C#N` [Example 55, 5-Chloro-2-cyanopyridin-3-yl 3-[4-(5-chloro-6-fluoropyridin-2-yl)-1H-1,2,3-triazol-1-yl]-3-deoxy-2-O-methyl-1-thio-α-D-galactopyranoside], the pKd is 6.46.

For the molecule `C#Cc1cnc(C#N)c(S[C@H]2O[C@H](CO)[C@H](O)[C@H](n3cc(-c4cc(F)c(Cl)c(F)c4)nn3)[C@H]2OC)c1` [Example 56, 2-Cyano-5-ethynylpyridin-3-yl 3-[4-(4-chloro-3,5-difluorophenyl)-1H-1,2,3-triazol-1-yl]-3-deoxy-2-O-methyl-1-thio-α-D-galactopyranoside], the pKd was 7.55. Against the preceding molecule, the pKd is 1.09 log units higher.

As to `C#Cc1cnc(C#N)c(S[C@H]2O[C@H](CO)[C@H](O)[C@H](n3cc(-c4cc(F)c(C)c(F)c4)nn3)[C@H]2OC)c1` [Example 57, 2-Cyano-5-ethynylpyridin-3-yl 3-deoxy-3-[4-(3,5-difluoro-4-methylphenyl)-1H-1,2,3-triazol-1-yl]-2-O-methyl-1-thio-α-D-galactopyranoside], the pKd was 7.46. This pKd and that of the molecule before are within 0.2 log units of each other.

The molecule `CO[C@@H]1[C@@H](n2cc(-c3cc(F)c(Cl)c(F)c3)nn2)[C@@H](O)[C@@H](CO)O[C@@H]1Sc1cnc(C(F)(F)F)c(C#N)c1` [Example 58, 5-Cyano-6-trifluoromethylpyridin-3-yl 3-[4-(4-chloro-3,5-difluorophenyl)-1H-1,2,3-triazol-1-yl]-3-deoxy-2-O-methyl-1-thio-α-D-galactopyranoside] gave a pKd of 6.72.

In the case of `CO[C@@H]1[C@@H](n2cc(-c3cc(F)c(F)c(F)c3)nn2)[C@@H](O)[C@@H](CO)O[C@@H]1Sc1cncc(C#N)c1` [Example 59, 5-Cyanopyridin-3-yl 3-deoxy-3-[4-(3,4,5-trifluorophenyl)-1H-1,2,3-triazol-1-yl]-2-O-methyl-1-thio-α-D-galactopyranoside], the pKd is 7.12.
